These results are taken from ChEMBL document CHEMBL4622979, “Non-rigid Diarylmethyl Analogs of Baloxavir as Cap-Dependent Endonuclease Inhibitors of Influenza Viruses” (J Med Chem, 2020).

Active and inactive are the calls of the source. The calls are words filed in the database; no cut-off is given here.

Data set [1] in a line: Stability in simulated gastric fluid assessed as parent compound remaining at 1 uM measured after 4 hrs at pH 1.2 by LC-MS/MS analysis. Type of data set: physicochemical. The following applies: read-out: Stability.
Data set [2] in a line: MRTlast in CD1 mouse liver assessed as baloxavir acid level at 15 mg/kg, po administered as single dose measured up to 24 hrs by LC-MS/MS analysis. The following applies: in vivo. It is filed as ADME, organism-based.
Data set [3] can be described thus: Protein binding in human plasma at 1 uM measured after 4 hrs by LC-MS/MS analysis. Type of data set: ADME, cell-free. The following applies: read-out: PPB (converted).
Data set [4] is described as follows: Ratio of AUClast in CD1 mouse lung to plasma assessed as baloxavir acid level at 15 mg/kg, po administered as single dose by LC-MS/MS analysis. Type of data set: ADME, organism-based. The following applies: other tissue.
The nature of data set [5]: Cmax in CD1 mouse heart assessed as baloxavir acid level at 15 mg/kg, po administered as single dose measured up to 24 hrs by LC-MS/MS analysis. Type of data set: ADME, organism-based. Also on record: dose 15 mg/kg, route oral. The following applies: in vivo.
The nature of data set [6]: Protein binding in rat plasma at 1 uM measured after 4 hrs by LC-MS/MS analysis. The following applies: read-out: PPB (converted). It is filed as ADME, cell-free.
Data set [7] deals with Influenza A virus. The experiment in a line: Antiviral activity against Influenza A/California/04/2009 (H1N1)pdm09 infected in specific pathogen-free BALB/c mouse assessed as protection against virus-induced mouse death at 20 mg/kg, po administered via gavage immediately after infection and at 12 hrs post-infection measured on 16 days post-infection relative to control. Type of data set: functional.

Data set [8] in a line: Cmax in CD1 mouse small intestine assessed as baloxavir acid level at 15 mg/kg, po administered as single dose measured up to 24 hrs by LC-MS/MS analysis. Type of data set: ADME, organism-based. Set-up: dose 15 mg/kg, route oral. The conditions noted are these: in vivo.
A short description of data set [9]: Ratio of AUClast in CD1 mouse liver to plasma assessed as baloxavir acid level at 15 mg/kg, po administered as single dose measured up to 24 hrs by LC-MS/MS analysis. It is filed as ADME, organism-based. The conditions noted are these: other tissue.
Data set [10] can be described thus: AUClast in CD1 mouse spleen assessed as baloxavir acid level at 15 mg/kg, po administered as single dose measured up to 24 hrs by LC-MS/MS analysis. Type of data set: ADME, organism-based. The following applies: in vivo.
Data set [11] can be described thus: Tmax in CD1 mouse plasma assessed as baloxavir acid level at 15 mg/kg, po administered as single dose measured up to 24 hrs by LC-MS/MS analysis. Type of data set: ADME, organism-based. The following applies: in vivo.
The nature of data set [12]: Toxicity in Influenza A/California/04/2009 (H1N1)pdm09 infected specific pathogen-free BALB/c mouse assessed as effect on body weight at 20 to 50 mg/kg, po administered via gavage immediately after infection and at 12 hrs post-infection measured after 10 days post-infection. Type of data set: organism-based. The following applies: in vivo, 240 h.
Data set [13] deals with Influenza A virus. The experiment in a line: Antiviral activity against Influenza A/California/04/2009 (H1N1)pdm09 infected in specific pathogen-free BALB/c mouse assessed as reduction in virus titre in lung at 50 mg/kg, po administered via gavage immediately after infection and at 12 hrs post-infection measured 24 hrs post-infection. It is filed as functional, organism-based.

The nature of data set [14]: MRTlast in CD1 mouse lung assessed as baloxavir acid level at 15 mg/kg, po administered as single dose measured up to 24 hrs by LC-MS/MS analysis. It is filed as ADME, organism-based. The conditions noted are these: in vivo.
A short description of data set [15]: Stability in simulated intestinal fluid assessed as parent compound remaining at 1 uM measured after 4 hrs at pH 1.2 by LC-MS/MS analysis. Type of data set: physicochemical. The conditions noted are these: read-out: Stability.
Data set [16] in a line: Ratio of Cmax in CD1 mouse lung to plasma assessed as baloxavir acid level at 15 mg/kg, po administered as single dose by LC-MS/MS analysis. Type of data set: ADME, organism-based. The conditions noted are these: other tissue.
Data set [17] has as its system Influenza A virus. The experiment in a line: Antiviral activity against Influenza A/California/04/2009 (H1N1)pdm09 infected in specific pathogen-free BALB/c mouse assessed as protection against virus-induced mouse death at 50 mg/kg, po administered via gavage immediately after infection and at 12 hrs post-infection measured on 16 days post-infection relative to control. Type of data set: functional.

The nature of data set [18]: Cmax in CD1 mouse blood assessed as baloxavir acid level at 15 mg/kg, po administered as single dose measured up to 24 hrs by LC-MS/MS analysis. The following applies: in vivo. Set-up: dose 15 mg/kg, route oral. It is filed as ADME, organism-based.
The nature of data set [19]: Protein binding in mouse plasma at 1 uM measured after 4 hrs by LC-MS/MS analysis. It is filed as ADME, cell-free. The conditions noted are these: read-out: PPB (converted).
The nature of data set [20]: AUClast in CD1 mouse plasma assessed as baloxavir acid level at 15 mg/kg, po administered as single dose by LC-MS/MS analysis. It is filed as ADME, organism-based. Set-up: dose 15 mg/kg, route oral, time 0 - last. The conditions noted are these: in vivo.
Data set [21] is described as follows: MRTlast in CD1 mouse brain assessed as baloxavir acid level at 15 mg/kg, po administered as single dose measured up to 24 hrs by LC-MS/MS analysis. Type of data set: ADME, organism-based. The conditions noted are these: in vivo.
Data set [22] in a line: AUClast in CD1 mouse brain assessed as (12aR)-12-(Diphenylmethyl)-7-hydroxy-3,4,12,12a-tetrahydro-1H-[1,4]oxazino[3,4-c]pyrido[2,1-f ][1,2,4]triazine-6,8-dione level at 15 mg/kg, po administered as single dose measured up to 24 hrs by LC-MS/MS analysis. It is filed as ADME, organism-based. The conditions noted are these: in vivo.
A short description of data set [23]: Elimination rate constant in CD1 mouse heart assessed as (12aR)-12-(Diphenylmethyl)-7-hydroxy-3,4,12,12a-tetrahydro-1H-[1,4]oxazino[3,4-c]pyrido[2,1-f ][1,2,4]triazine-6,8-dione level at 15 mg/kg, po administered as single dose measured up to 24 hrs by LC-MS/MS analysis. The following applies: in vivo. Type of data set: ADME, organism-based.
Data set [24] is described as follows: Acute toxicity in CD1 mouse assessed as effect on spleen at 2000 mg/kg, po measured after 2 weeks by macroscopic analysis. Type of data set: organism-based. The conditions noted are these: in vivo, 336 h.
A short description of data set [25]: AUCinfinity in CD1 mouse kidney assessed as (12aR)-12-(Diphenylmethyl)-7-hydroxy-3,4,12,12a-tetrahydro-1H-[1,4]oxazino[3,4-c]pyrido[2,1-f ][1,2,4]triazine-6,8-dione level at 15 mg/kg, po administered as single dose measured up to 24 hrs by LC-MS/MS analysis. Type of data set: ADME, organism-based. Also on record: dose 15 mg/kg, time infinity, route oral. The conditions noted are these: in vivo.

The nature of data set [26]: Cytotoxicity against human MRC5 cells assessed as reduction in cell viability by ATP bioluminescence assay. Type of data set: cell-based.
A short description of data set [27]: AUCinfinity in CD1 mouse trachea assessed as (12aR)-12-(Diphenylmethyl)-7-hydroxy-3,4,12,12a-tetrahydro-1H-[1,4]oxazino[3,4-c]pyrido[2,1-f ][1,2,4]triazine-6,8-dione level at 15 mg/kg, po administered as single dose measured up to 24 hrs by LC-MS/MS analysis. Also on record: dose 15 mg/kg, route oral, time infinity. Type of data set: ADME, organism-based. The following applies: in vivo.

The nature of data set [28]: Cmax in CD1 mouse blood assessed as (12aR)-12-(Diphenylmethyl)-7-hydroxy-3,4,12,12a-tetrahydro-1H-[1,4]oxazino[3,4-c]pyrido[2,1-f ][1,2,4]triazine-6,8-dione level at 15 mg/kg, po administered as single dose measured up to 24 hrs by LC-MS/MS analysis. It is filed as ADME, organism-based. Also on record: dose 15 mg/kg, route oral. The following applies: in vivo.
Data set [29] is described as follows: MRTlast in CD1 mouse lung assessed as (12aR)-12-(Diphenylmethyl)-7-hydroxy-3,4,12,12a-tetrahydro-1H-[1,4]oxazino[3,4-c]pyrido[2,1-f ][1,2,4]triazine-6,8-dione level at 15 mg/kg, po administered as single dose measured up to 24 hrs by LC-MS/MS analysis. Type of data set: ADME, organism-based. The conditions noted are these: in vivo.
Data set [30] in a line: AUClast in CD1 mouse lung assessed as (12aR)-12-(Diphenylmethyl)-7-hydroxy-3,4,12,12a-tetrahydro-1H-[1,4]oxazino[3,4-c]pyrido[2,1-f ][1,2,4]triazine-6,8-dione level at 15 mg/kg, po administered as single dose measured up to 24 hrs by LC-MS/MS analysis. It is filed as ADME, organism-based. The following applies: in vivo.

Broadly, the Cmax is the highest concentration seen after dosing. One may read the Tmax as the time from dosing to the highest level. With `COC(=O)OCOc1c2n(ccc1=O)N([C@@H]1c3ccccc3SCc3c1ccc(F)c3F)[C@@H]1COCCN1C2=O` [BALOXAVIR MARBOXIL], the figures for the remaining at 4 h, 1 µM in data set [1] and in data set [15] were 101% and 87.9%, respectively. For the same compound, the MRTlast in data set [2] was determined as 2.92 h; in data set [14], 4.84 h; in [21], 8.42 h. Further, the fraction unbound at 4 h, 1 µM in data set [3] was 0.057; in data set [6] it was 0.064; in [19], 0.08. The “Ratio AUC” value came to 16.7 in data set [4] and 189 in [9]. Moreover, the maximum concentration (Cmax) in [5] was determined as 1188 ng/g; in [8], 53413 ng/g; in data set [18], 215 ng/g. For the same compound, the Activity in data set [7] is 80%; in [12], “Non-Toxic”; in data set [17] it was 90%. The AUClast is 3611 ng·h/g in data set [10] and 715 ng·h/mL in [20]. For the same compound, in data set [11], the Tmax worked out at 2 h. In addition, the result in [13] was Active. The Ratio in data set [16] amounted to 10.8.
As usually defined, the CC50 is the concentration at which the toxic effect on the cells reaches its halfway point. On to `COC(=O)OCOc1c2n(ccc1=O)N(C(c1ccccc1)c1ccccc1)[C@@H]1COCCN1C2=O`, for which the remaining at 4 h, 1 µM was 94.8% in [1] and 93.7% in data set [15]. Besides, the results for the AUClast in data set [22] and in data set [30] were 609 ng·h/g and 8320 ng·h/g, respectively. The Kel in data set [23] is 0.41 h⁻¹. In addition, the Activity entry is given as “Non-Toxic” in [24], 80% in data set [7], “Non-Toxic” in [12] and 80% in data set [17]. In addition, the values for the fraction unbound at 4 h, 1 µM in data set [3], in data set [6] and in data set [19] were 0.01, 0.016 and 0.009, respectively. The AUC was 18087 ng·h/g in data set [25] and 10875 ng·h/g in data set [27]. The CC50 in data set [26] is > 100 µM. The outcome in data set [13] was Active. Further, in [28], the peak concentration (Cmax) is recorded as 951 ng/g. The MRTlast in data set [29] is 1.7 h.
